The record followed here is patent publication US20160136120A1, “TRANSDERMAL DELIVERY KITS” (ASCLEMED USA, INC. dba EnovaChem Manufacturing, priority 2013, published 2016).

The series is described as follows: Stability tests of API mixed with Microderm base, stored in a jar with closed lid (LC-UV assay). In kind it is physicochemical. The following applies: as illustrated in the stability studies. As for the experimental part:
The stability tests were carried out by mixing the API (USP strength) with Microderm™, and placing the resulting composition in ajar with a closed lid.
Column: 4.6-mm×25.0-cm; 5-μm packing L1
Storage condition: 20° C. to 25° C. (68° F. to 77° F.)

Turning to `NCC(CC(=O)O)c1ccc(Cl)cc1` (stereo not drawn) [Baclofen, β-(4-chlorophenyl)-γ-aminobutyric acid], the Susceptibility to degradation entry is on record as “particularly susceptible to degradation”.
